In patent US9676820B2, “Method for inhibiting proliferation of high LIX1L-expressing tumor cell, and tumor cell proliferation-inhibiting peptide” (National University Corporation Hamamatsu University School …, priority 2013, dated 2017):
Entries after “also recorded” stand apart in the source; their conditions may differ.

Key:
Type in all cases: cell-based
RPMI8226 strain = assay: MTT assay, RPMI8226 strain; conditions: peptide 0 μM to 100 μM, 72 hours
Description: (§1) Specifically, first, cells plated in a 96-well microplate such that the density thereof became 5×10^3 cells/well were cultured for one night in a culture solution having the same composition as those in the reference examples. Thereafter, the culture solution was exchanged with 100 μL of a culture solution of which the concentration of peptides is 0 μM to 100 μM for culturing for 72 hours. After the culturing, an MTT-containing PBS solution was added to the culture solution, and the mixture was incubated for 4 hours. Then, formazan which was generated by putting 100 μL of isopropanol (containing 34 (v/v) % of hydrochloric acid) into each of the wells was dissolved. The absorbance of each of the wells of the microplate at 570 nm was measured using a microplate reader. As controls, culturing was performed in the same manner except that no peptide was added to the strains, an MTT assay was performed thereon, and the absorbance at 570 nm was measured (untreated).
Specifically, the cells were cultured for 72 hours similarly to Example 2 except that a peptide to be added to a cell strain was set to peptide 1, 3, or 4, or a control peptide, an MTT assay was performed thereon, and the absorbance at 570 nm was measured.

HL-60 strain = assay: MTT assay, HL-60 strain
Description: as §1
(§2) In the method for measuring the viable cell counts, cells were cultured for 3 days similarly to Example 1 except that a 25 μM (10 μM for an HL-60 strain, a K562 strain, and a U937 strain) culture solution containing a control peptide or a peptide 1 was used, and the viable cell counts were measured. As a comparison, culturing was performed similarly to the above using a culture solution containing no peptide, and the viable cell counts were measured (untreated).
(§3) In addition, in the method for performing an MTT assay, cells were cultured for 72 hours similarly to Example 2 except that a peptide to be added to a strain was set to a control peptide or a peptide 1 at 25 μM (10 μM for an HL-60 strain, a K562 strain, and a U937 strain), an MTT assay was performed thereon, and the absorbance at 570 nm was measured. As a comparison, culturing was performed similarly to the above using a culture solution containing no peptide, and the MTT assay was performed thereon (untreated).

NUGC-4 strain = assay: MTT assay, NUGC-4 strain
Description: as §1, with “Thereafter, the culture solution was exchanged with 100 μL of a culture solution of which the concentration of peptides is 0 μM to 100 μM for culturing for 72 hours.” left out
as §2, §3
(§4) Specifically, the cells were cultured for 72 hours similarly to Example 2 except that a peptide to be added to a cell was set to a peptide 1, 2, 5, or 6, MTT assays were performed thereon, and the absorbance at 570 nm was measured. As a comparison, culturing was performed similarly to the above using a culture solution containing no peptide, and the MTT assay was performed thereon (untreated).
(§5) Specifically, the cells were cultured for 72 hours similarly to Example 2 except that peptides to be added to cell strains were set to peptides 7 to 14, MTT assays were performed thereon, and the absorbance at 570 nm was measured. […]
(§6) Specifically, the cells were cultured for 72 hours similarly to Example 2 except that a peptide to be added to a cell strain was set to a peptide 15 or 16, an MTT assay was performed thereon, and the absorbance at 570 nm was measured. […]

293 FLG/LIX1L = assay: MTT assay, 293 FLG/LIX1L cells
Description: as §1, with “Thereafter, the culture solution was exchanged with 100 μL of a culture solution of which the concentration of peptides is 0 μM to 100 μM for culturing for 72 hours.” left out
as §2, §3, §4, §5, §6

[1] = 72 hours, peptide concentrations up to 250 μM
[2] = peptide 25 μM, 3 days / 72 hours

## CC(C)[C@H](NC(=O)[C@H](Cc1ccc(O)cc1)NC(=O)[C@H](CS)NC(=O)[C@@H](NC(=O)[C@H](Cc1ccc(O)cc1)NC(=O)[C@@H]1CCCN1C(=O)[C@@H]1CCCN1C(=O)[C@H](CO)NC(=O)[C@H](CC(N)=O)NC(=O)[C@H](CO)NC(=O)[C@@H]1CCCN1C(=O)CCCCCNC(=O)[C@H](CCCNC(=N)N)NC(=O)[C@H](CCCNC(=N)N)NC(=O)[C@H](CCCNC(=N)N)NC(=O)[C@H](CCC(N)=O)NC(=O)[C@H](CCCNC(=N)N)NC(=O)[C@H](CCCNC(=N)N)NC(=O)[C@H](CCCCN)NC(=O)[C@H](CCCCN)NC(=O)[C@H](CCCNC(=N)N)NC(=O)CNC(=O)[C@@H](N)Cc1ccc(O)cc1)C(C)C)C(N)=O [peptide 1, YGRKKRRQRRR-X-PSNSPPYVCYV-NH2]
RPMI8226 strain
  absorbance at 570 nm (MTT assay), influence on cell proliferation: no effect of inhibiting the cell proliferation; also recorded: not inhibited
HL-60 strain; MTT assay, 72 hours
  concentration at which a dominant effect of inhibiting the cell proliferation was recognized: greater than or equal to 6.25 μM
HL-60 strain; peptide 10 μM, 3 days / 72 hours
  cell proliferation (viable cell counts and MTT assay): inhibited
NUGC-4 strain; [1]
  cell proliferation (MTT assay, absorbance at 570 nm): inhibited
NUGC-4 strain; [2]
  cell proliferation (viable cell counts and MTT assay): not inhibited
293 FLG/LIX1L; [1]
  cell proliferation (MTT assay, absorbance at 570 nm): inhibited
293 FLG/LIX1L; [2]
  cell proliferation (viable cell counts and MTT assay): inhibited
